Data set [1] is described as follows: Compound toxicity, ATPLite (CC50). To be noted: human, HepAD38 cells.
Experimental: (§1) Briefly, cells are passaged upon attaining confluency in DMEM/F12 media in the presence of 10% FBS, Penn/Strep, 250 μg/mL G418, and 1 μg/ml tetracycline. Novel compounds are screened by first washing cells three times with PBS to remove tetracycline, and plating in 96 well plates at 35,000 cells/well. Compounds dissolved in DMSO are then diluted 1:200 into wells containing cells. Five days after compound addition, material is harvested for analysis.
Compound toxicity is evaluated by seeding cells at 15,000 cells/well and treating with compound as described above.
Data set [2] deals with hepatitis B virus (HBV). Put plainly: HepAD38 antiviral assay (viral product accumulation, EC50). To be noted: HePAD38, 120 h, read-out: HepAD38 EC50.
Experimental: as §1
On harvest day, virion DNA is obtained by lysing with Sidestep Lysis and Stabilization Buffer and then quantified via quantitative real time PCR. Commercially available ELISA kits are used to quantitate the viral proteins HBsAg (Alpco) or HbeAg (US Biological) by following the manufacturer's recommended protocol after diluting samples to match the linear range of their respective assays.

As for `CN(C(=O)N1CCC(O)CC1)c1cc(C(=O)Nc2cc(F)c(F)c(F)c2)n(C)n1` [Example 58], the cytotoxic concentration (CC50) at 3 days in data set [1] was above 30 µM. In addition, the half-maximal effective concentration (EC50) in data set [2] was above 10 µM.

For the molecule `CN(CCO)C(=O)Nc1cc(C(=O)Nc2cc(F)c(F)c(F)c2)n(C)n1` [Example 21], the CC50 at 3 days in data set [1] was above 30 µM. Further, in data set [2], the EC50 lay within 1 to 10 µM.

Molecule `Cn1c(NC(=O)N2CCC(O)CC2)cnc1C(=O)Nc1cc(F)c(F)c(F)c1` [Example 6] yielded a CC50 at 3 days in data set [1] above 10 µM. Besides, the half-maximal effective concentration (EC50) in data set [2] was above 10 µM.

Molecule `Cn1nc(NC(=O)N2CCC(O)CC2)cc1C(=O)Nc1ccc(C(C)(C)C)cc1` [Example 69] had a CC50 at 3 days in data set [1] above 30 µM. The EC50 in data set [2] was above 10 µM.

For `CN(C)CCNC(=O)Nc1cc(C(=O)Nc2cc(F)c(F)c(F)c2)n(C)n1` [Example 25], the 50% cytotoxic concentration (CC50) at 3 days in data set [1] was above 30 µM. Also, in data set [2], the EC50 was above 10 µM.

The molecule `Cn1nc(NC(=O)N2CCC(O)CC2)cc1C(=O)Nc1cccc(O)c1` [Example 63] had a CC50 at 3 days in data set [1] above 30 µM. Moreover, the EC50 in data set [2] is above 10 µM.

`COC(=O)c1cccc(NC(=O)c2cc(NC(=O)N3CCC(O)CC3)nn2C)c1` [Example 73] registered a CC50 at 3 days in data set [1] above 30 µM. Besides, in data set [2], the EC50 was above 10 µM.

Molecule `O=C(Nc1cc(F)c(F)c(F)c1)c1ccc(Cl)c(NC(=O)N2CCC(O)CC2)c1` [Example 7] yielded a CC50 at 3 days in data set [1] above 30 µM. Moreover, the EC50 in data set [2] lay in the range of 1 to 10 µM.

Consider `Cn1nc(NC(=O)N2CCC(O)CC2)cc1C(=O)Nc1cc(F)cc(F)c1` [Example 46], for which the CC50 at 3 days in data set [1] is 10 to 30 µM. Moreover, the half-maximal effective concentration (EC50) in data set [2] was above 10 µM.

In data set [1], `Cn1nc(NC(=O)N2CCOCC2)cc1C(=O)Nc1cc(F)c(F)c(F)c1` [Example 20] yielded a CC50 at 3 days above 30 µM. The EC50 in data set [2] was in the range of 1 to 10 µM.

In data set [1], `Cn1nc(NC(=O)N2CCC(O)CC2)cc1C(=O)Nc1cccc(F)c1` [Example 43] showed a 50% cytotoxic concentration (CC50) at 3 days above 30 µM. In addition, the concentration for a half-maximal effect (EC50) in data set [2] fell in the range of 1 to 10 µM.

`CN(C(=O)Nc1cc(C(=O)Nc2cc(F)c(F)c(F)c2)n(C)n1)C1CCCCC1` [Example 28] came in with a CC50 at 3 days in data set [1] above 30 µM. In addition, the 50% effective concentration (EC50) in data set [2] is below 1 µM.

The molecule `Cn1nc(NC(=O)N2CCC(O)CC2)cc1C(=O)Nc1ccc(F)cc1` [Example 34] came in with a CC50 at 3 days in data set [1] above 30 µM. Besides, the concentration for a half-maximal effect (EC50) in data set [2] lay within 1 to 10 µM.

With `Cn1nc(NC(=O)C2CCC(O)CC2)cc1C(=O)Nc1cc(F)c(F)c(F)c1` (stereo not drawn) [Example 14], the CC50 at 3 days in data set [1] is above 30 µM. Besides, in data set [2], the half-maximal effective concentration (EC50) fell in the range of 1 to 10 µM.

As to `Cn1nc(NC(=O)N2CCC(O)CC2)cc1C(=O)Nc1ccccc1` [Example 51], the 50% cytotoxic concentration (CC50) at 3 days in data set [1] was above 30 µM. In addition, the EC50 in data set [2] was above 10 µM.

With `Cn1nc(NC(=O)N2CCC(F)(F)CC2)cc1C(=O)Nc1cc(F)c(F)c(F)c1` [Example 18], in data set [1], the 50% cytotoxic concentration (CC50) at 3 days is above 30 µM. Also, the concentration for a half-maximal effect (EC50) in data set [2] is 1 to 10 µM.

As for `Cn1nc(NS(=O)(=O)N2CCC(OCc3ccccc3)CC2)cc1C(=O)Nc1cc(F)c(F)c(F)c1` [Example 12], the CC50 at 3 days in data set [1] lay within 10 to 30 µM. The EC50 in data set [2] is 1 to 10 µM.

In turn, `Cn1nc(NC(=O)N2CCC(O)CC2)cc1C(=O)Nc1ccc(F)c(F)c1` [Example 44] registered a half-maximal cytotoxic concentration (CC50) at 3 days in data set [1] above 30 µM. Also, in data set [2], the EC50 lay within 1 to 10 µM.

In data set [1], `O=C(Nc1cc(F)c(F)c(F)c1)c1ccc(Cl)c(NS(=O)(=O)N2CCC(O)CC2)c1` [Example 71] came in with a cytotoxic concentration (CC50) at 3 days above 30 µM. For the same molecule, the EC50 in data set [2] fell in the range of 1 to 10 µM.

On to `Cn1nc(NC(=O)N2CCC(C)(O)CC2)cc1C(=O)Nc1cc(F)c(F)c(F)c1` [Example 19], for which the CC50 at 3 days in data set [1] was above 30 µM. Besides, the EC50 in data set [2] was 1 to 10 µM.

Turning to `CCc1ccc(NC(=O)c2cc(NC(=O)N3CCC(O)CC3)nn2C)cc1` [Example 66], the half-maximal cytotoxic concentration (CC50) at 3 days in data set [1] was above 30 µM. The EC50 in data set [2] is above 10 µM.

`Cn1nc(NC(=O)NCCO)cc1C(=O)Nc1cc(F)c(F)c(F)c1` [Example 32] returned a 50% cytotoxic concentration (CC50) at 3 days in data set [1] of 10 to 30 µM. Also, in data set [2], the 50% effective concentration (EC50) was 1 to 10 µM.

In data set [1], `COc1cccc(NC(=O)c2cc(NC(=O)N3CCC(O)CC3)nn2C)c1` [Example 65] had a CC50 at 3 days above 30 µM. Besides, the EC50 in data set [2] is above 10 µM.

`Cn1nc(NS(=O)(=O)C2CCC(O)CC2)cc1C(=O)Nc1cc(F)c(F)c(F)c1` (stereo not drawn) [Example 5] yielded a CC50 at 3 days in data set [1] above 30 µM. For the same molecule, the concentration giving a half-maximal response (EC50) in data set [2] was below 1 µM.

Regarding `CC(C)c1cccc(NC(=O)c2cc(NC(=O)N3CCC(O)CC3)nn2C)c1` [Example 68], the CC50 at 3 days in data set [1] is above 10 µM. For the same molecule, the EC50 in data set [2] was above 10 µM.

Regarding `CCCCNC(=O)Nc1cc(C(=O)Nc2cc(F)c(F)c(F)c2)n(C)n1` [Example 31], the CC50 at 3 days in data set [1] is above 30 µM. In addition, the concentration giving a half-maximal response (EC50) in data set [2] is 1 to 10 µM.

The molecule `Cn1nc(NC(=O)N2CCC(O)CC2)cc1C(=O)Nc1ccc(F)cc1F` [Example 47] came in with a cytotoxic concentration (CC50) at 3 days in data set [1] above 30 µM. Further, the EC50 in data set [2] was above 10 µM.

As to `Cn1nc(NC(=O)N2CCC(O)CC2)cc1C(=O)Nc1ccccn1` [Example 61], the CC50 at 3 days in data set [1] is above 30 µM. The 50% effective concentration (EC50) in data set [2] was above 10 µM.

Take `Cn1nc(NC(=O)OCCO)cc1C(=O)Nc1cc(F)c(F)c(F)c1` [Example 15]: the CC50 at 3 days in data set [1] was above 30 µM. Besides, the concentration for a half-maximal effect (EC50) in data set [2] is below 1 µM.

In data set [1], `Cn1nc(NC(=O)N2CCC(O)CC2)cc1C(=O)Nc1ccc(F)c(C(F)(F)F)c1` [Example 52] gave a 50% cytotoxic concentration (CC50) at 3 days above 30 µM. Moreover, in data set [2], the EC50 was 1 to 10 µM.

In turn, `CN(C(=O)Nc1cc(C(=O)Nc2cc(F)c(F)c(F)c2)n(C)n1)C1CC1` [Example 22] returned a 50% cytotoxic concentration (CC50) at 3 days in data set [1] above 30 µM. Further, in data set [2], the concentration for a half-maximal effect (EC50) was above 10 µM.

The molecule `Cn1nc(NC(=O)N2CCC(O)CC2)cc1C(=O)Nc1ccc(F)c(Cl)c1` [Example 48] showed a half-maximal cytotoxic concentration (CC50) at 3 days in data set [1] below 10 µM. In addition, the EC50 in data set [2] lay in the range of 1 to 10 µM.

Molecule `CN(Cc1ccccc1)C(=O)Nc1cc(C(=O)Nc2cc(F)c(F)c(F)c2)n(C)n1` [Example 23] displayed a CC50 at 3 days in data set [1] below 10 µM. Further, the 50% effective concentration (EC50) in data set [2] fell in the range of 1 to 10 µM.

`Cn1nc(NC(=O)N2CCC(F)CC2)cc1C(=O)Nc1cc(F)c(F)c(F)c1` [Example 17] came in with a half-maximal cytotoxic concentration (CC50) at 3 days in data set [1] below 10 µM. For the same molecule, in data set [2], the concentration for a half-maximal effect (EC50) was in the range of 1 to 10 µM.

`COCCNC(=O)Nc1cc(C(=O)Nc2cc(F)c(F)c(F)c2)n(C)n1` [Example 24] gave a cytotoxic concentration (CC50) at 3 days in data set [1] above 30 µM. The EC50 in data set [2] lay in the range of 1 to 10 µM.

`Cn1nc(NC(=O)N2CCC(O)CC2)cc1C(=O)Nc1ccc(Cl)c(F)c1` [Example 49]: in data set [1], the 50% cytotoxic concentration (CC50) at 3 days is above 30 µM. Also, in data set [2], the concentration for a half-maximal effect (EC50) was in the range of 1 to 10 µM.

For the molecule `Cn1nc(C(=O)Nc2cc(F)c(F)c(F)c2)cc1NC(=O)N1CCC(O)CC1` [Example 13], in data set [1], the CC50 at 3 days is above 10 µM. The EC50 in data set [2] is above 10 µM.

`Cn1nc(NC(=O)N(CCO)CCO)cc1C(=O)Nc1cc(F)c(F)c(F)c1` [Example 27] came in with a CC50 at 3 days in data set [1] above 30 µM. The half-maximal effective concentration (EC50) in data set [2] was above 10 µM.

With `CC(C)CN(C)C(=O)Nc1cc(C(=O)Nc2cc(F)c(F)c(F)c2)n(C)n1` [Example 41], the cytotoxic concentration (CC50) at 3 days in data set [1] was above 30 µM. Further, the concentration for a half-maximal effect (EC50) in data set [2] is below 1 µM.

For `COC(=O)c1ccc(NC(=O)c2cc(NC(=O)N3CCC(O)CC3)nn2C)cc1` [Example 72], the half-maximal cytotoxic concentration (CC50) at 3 days in data set [1] was above 30 µM. For the same molecule, the concentration for a half-maximal effect (EC50) in data set [2] is above 10 µM.

The molecule `Cn1nc(NC(=O)N2CCC(O)CC2)cc1C(=O)Nc1ccncc1` [Example 56] yielded a half-maximal cytotoxic concentration (CC50) at 3 days in data set [1] above 30 µM. The concentration for a half-maximal effect (EC50) in data set [2] was above 10 µM.

In data set [1], `Cn1nc(NC(=O)Nc2cc(F)c(F)c(F)c2)cc1S(=O)(=O)N1CCC(O)CC1` [Example 2] returned a CC50 at 3 days above 30 µM. In addition, the EC50 in data set [2] fell in the range of 1 to 10 µM.

The record behind these values is patent US10738035B2, “Hepatitis B antiviral agents” (Enanta Pharmaceuticals, Inc., priority 2015, dated 2020).
